Experimental data as given in patent US20160101072A1, “Therapeutic uses of enzyme inhibitors” (Proximagen Limited, priority 2013, published 2016).
Marks after values point to notes of the source that are not given here.

How the values were obtained:
CD53 mRNA = assay: mRNA quantification (RT PCR) of CD53 in muscles of mdx mice; assay type: in vivo, mouse
Source text: (§1) A total of a ninety C57BU10ScSn-Dmdmdx/J male mice, 3 weeks of age (+/-3days), were transferred to the in vivo research laboratory in Bar Harbor, Me. Additional ten […] male mice 3 weeks of age (+/-3 days) were also transferred and served as a wild-type control group. The mice were ear notched for identification and housed in ventilated polysulfone cages with HEPA filtered air at a density of 3-4 mice per cage. The animal room was lit entirely with artificial fluorescent lighting on controlled 12 hour light/dark cycle (6 a.m. to 6 p.m. light). […] The animal room was set for 15 air exchanges per hour. Filtered tap water acidified to a pH of 2.8 to 3.2 was provided ad libitum. […] Prior to study initiation, mice were acclimated for 3 days. Mice were tested for grip strength and in the open field at ages 25 and 26 days, and drug regimen was initiated at age 27 days. Mice were monitored twice weekly for clinical observations and body weights. […] 24 hours after the second open field tests, blood was collected by retro-orbital bleeding, and mice were humanely euthanized by CO2 asphyxiation. One triceps surae was collected fresh and processed for immune cell sorting, one tibialis anterior was preserved in RNALater for RNA extraction, one whole hind limb and the diaphragm were fixed in 2% paraformaldehyde overnight at 4° C. for paraffin embedding and histology stains. Total RNAs were extracted with a modification of the Trizol method, reverse transcribed, and mRNAs of TGFβ, and the following inflammation markers were quantified by the SYBR green method with GAPDH as a normalizer: […]

CD11b mRNA = assay: mRNA quantification (RT PCR) of CD11b in muscles of mdx mice; assay type: in vivo, mouse
Source text: as §1

CD11b+ myeloid cells = assay: Cell sorting: recruitment of CD11b+ myeloid cells into muscles of mdx mice; assay type: in vivo, mouse; conditions: mdx mice muscle; for % change compared to vehicle (CD11b+ myeloid cells) / % of viable cells (CD11b+ myeloid cells): 4 weeks
Source text: (§2) In this example, labelled antibodies were used to assess infiltration of inflammatory myeloid and lymphoid cells into muscles of mdx mice following treatment of the mice with different doses of the glucocorticoid prednisolone, and the VAP-1 inhibitors carbidopa and benserazide. CD11b is a transmembrane glycoprotein which is expressed on the surface of granulocytes (including neutrophils and eosinophils), monocytes, NK cells, dendritic cells, tissue macrophages and subsets of T and B cells. Labelled antibody to CD11b was used to assess infiltration of inflammatory myeloid cells into muscles of mdx mice. Labelled antibody to Ly6C was used to assess infiltration of pro- and anti-inflammatory monocytes into muscles of mdx mice. Labelled antibody to CD4 and CD8a antigen was used to assess infiltration of Th cells (CD4^+CD8^-) and double negative (CD4^-CD8^-) T cells into muscles of mdx mice. A total of a ninety C57BU10ScSn-Dmdmdx/J male mice, 3 weeks of age (+/-3days), were transferred to the in vivo research laboratory in Bar Harbor, Me. Additional ten […] male mice 3 weeks of age (+/-3 days) were also transferred and served as a wild-type control group. The mice were ear notched for identification and housed in ventilated polysulfone cages with HEPA filtered air at a density of 3-4 mice per cage. The animal room was lit entirely with artificial fluorescent lighting on controlled 12 hour light/dark cycle (6 a.m. to 6 p.m. light). […] The animal room was set for 15 air exchanges per hour. Filtered tap water acidified to a pH of 2.8 to 3.2 was provided ad libitum. […] Prior to study initiation, mice were acclimated for 3 days. Mice were tested for grip strength and in the open field at ages 25 and 26 days, and drug regimen was initiated at age 27 days. Mice were monitored twice weekly for clinical observations and body weights. […] 24 hours after the second open field tests, blood was collected by retro-orbital bleeding, and mice were humanely euthanized by CO2 asphyxiation. One triceps surae was collected fresh and processed for immune cell sorting, one tibialis anterior was preserved in RNALater for RNA extraction, one whole hind limb and the diaphragm were fixed in 2% paraformaldehyde overnight at 4° C. for paraffin embedding and histology stains. For immune cell sorting, muscle samples were enzymatically and mechanically dissociated following manufacturer instructions (Skeletal Muscle Dissociation KitCatalog no. 130-098-305, Miltenyi Biotec). Cells were stained with the following antibodies: [table] Stained cells were analyzed on a BD LSR II cytometer and counts of different populations were expressed in percentage of the number of live cells counted.

IL-6 mRNA = assay: mRNA quantification (RT PCR) of IL-6 in muscles of mdx mice; assay type: in vivo, mouse; conditions: mdx mice muscle
Source text: as §1

[1] = system: CD11b+Ly6Clow anti-fibrotic myeloid cells (Ly6C- monocytes); assay: Cell sorting: recruitment of CD11b+Ly6Clow anti-fibrotic myeloid cells into muscles of mdx mice; assay type: in vivo, mouse; conditions: mdx mice muscle; for % change compared to vehicle (CD11b+Ly6Clow anti-fibrotic myeloid cells) / % of viable cells (CD11b+Ly6Clow anti-fibrotic myeloid cells): 4 weeks
Source text: as §2

[2] = system: lymphoid CD4+CD8- T cells; assay: Cell sorting: recruitment of lymphoid CD4+CD8- T cells into muscles of mdx mice; assay type: in vivo, mouse; conditions: mdx mice muscle
Source text: as §2

TGFβ mRNA = assay: mRNA quantification (RT PCR) of pro-fibrotic growth factor TGFβ in muscles of mdx mice; assay type: in vivo, mouse
Source text: as §1

[3] = system: CD11b+Ly6Chigh profibrotic myeloid cells (Ly6C+ monocytes); assay: Cell sorting: recruitment of CD11b+Ly6Chigh profibrotic myeloid cells into muscles of mdx mice; assay type: in vivo, mouse; conditions: mdx mice muscle; for % change compared to vehicle (CD11b+Ly6Chigh profibrotic myeloid cells) / % of viable cells (CD11b+Ly6Chigh profibrotic myeloid cells): 4 weeks
Source text: as §2

Mpeg1 mRNA = assay: mRNA quantification (RT PCR) of Mpeg1 in muscles of mdx mice; assay type: in vivo, mouse; conditions: mdx mice muscle
Source text: as §1

Ly6C1 mRNA = assay: mRNA quantification (RT PCR) of Ly6C1 in muscles of mdx mice; assay type: in vivo, mouse; conditions: mdx mice muscle
Source text: as §1

Lgals3 mRNA = assay: mRNA quantification (RT PCR) of Lgals3 in muscles of mdx mice; assay type: in vivo, mouse
Source text: as §1

[4] = system: CD11b+Ly6Chigh profibrotic : CD11b+Ly6Clow anti-fibrotic myeloid cells; assay: Ratio of profibrotic to anti-fibrotic myeloid cells in mdx mouse muscle; assay type: in vivo; conditions: both doses
Source text: In this example, labelled antibodies were used to assess infiltration of inflammatory myeloid and lymphoid cells into muscles of mdx mice following treatment of the mice with different doses of the glucocorticoid prednisolone, and the VAP-1 inhibitors carbidopa and benserazide. […] Labelled antibody to CD11b was used to assess infiltration of inflammatory myeloid cells into muscles of mdx mice. Labelled antibody to Ly6C was used to assess infiltration of pro- and anti-inflammatory monocytes into muscles of mdx mice. Labelled antibody to CD4 and CD8a antigen was used to assess infiltration of Th cells (CD4^+CD8^−) and double negative (CD4^−CD8^−) T cells into muscles of mdx mice.
A total of a ninety C57BU10ScSn-Dmdmdx/J male mice, 3 weeks of age (+/−3days), were transferred to the in vivo research laboratory in Bar Harbor, Me. Additional ten C57BU10ScSnJ male mice 3 weeks of age (+/−3 days) were also transferred and served as a wild-type control group. The mice were ear notched for identification and housed in ventilated polysulfone cages with HEPA filtered air at a density of 3-4 mice per cage. […]

TNF mRNA = assay: mRNA quantification (RT PCR) of TNF in muscles of mdx mice; assay type: in vivo, mouse
Source text: as §1

CD48 mRNA = assay: mRNA quantification (RT PCR) of CD48 in muscles of mdx mice; assay type: in vivo, mouse
Source text: as §1

[5] = system: lymphoid CD4-CD8- (double negative, DN) T cells; assay: Cell sorting: recruitment of lymphoid CD4-CD8- (double negative, DN) T cells into muscles of mdx mice; assay type: in vivo, mouse; conditions: mdx mice muscle
Source text: as §2

[6] = 50 mg/kg po twice/day, mdx mice muscle, GAPDH as normalizer
[7] = mdx mouse muscle, compared to vehicle
[8] = 100 mg/kg po twice/day, 4 weeks
[9] = doses as in the table (carbidopa 100, benserazide 20 mg/kg po twice/day; prednisolone 1 mg/kg ip once/day)
[10] = treatment alone, mdx mouse muscle

C[C@@](Cc1ccc(O)c(O)c1)(NN)C(=O)O [Carbidopa]
CD53 mRNA level (CD53 mRNA; [6]): 0.46**
reduction of the level of CD53 mRNA (CD53 mRNA; [7]): 52.6%
CD11b mRNA level (CD11b mRNA; [6]): 0.58*
reduction of the level of CD11b mRNA (CD11b mRNA; [7]): 42%
% change compared to vehicle (CD11b+ myeloid cells) (CD11b+ myeloid cells; 50 mg/kg po twice/day): −55.2%
% of viable cells (CD11b+ myeloid cells) (CD11b+ myeloid cells; 50 mg/kg po twice/day): 16.3** %
% change compared to vehicle (CD11b+ myeloid cells) (CD11b+ myeloid cells; 100 mg/kg po twice/day): −49.2%
% of viable cells (CD11b+ myeloid cells) (CD11b+ myeloid cells; 100 mg/kg po twice/day): 18.5** %
reduction of myeloid cell recruitment compared with vehicle (CD11b+ myeloid cells; both carbidopa doses (columns 5 and 6 of FIG. 4)): approximately 50%
effect on IL-6 mRNA level (IL-6 mRNA): No effects
% change compared to vehicle (CD11b+Ly6Clow anti-fibrotic myeloid cells) ([1]; 50 mg/kg po twice/day): −49.3%
% of viable cells (CD11b+Ly6Clow anti-fibrotic myeloid cells) ([1]; 50 mg/kg po twice/day): 13.8** %
% change compared to vehicle (CD11b+Ly6Clow anti-fibrotic myeloid cells) ([1]; 100 mg/kg po twice/day): −41.2%
% of viable cells (CD11b+Ly6Clow anti-fibrotic myeloid cells) ([1]; 100 mg/kg po twice/day): 16** %
inhibition of recruitment of anti-fibrotic myeloid cells compared with vehicle ([1]; both carbidopa doses (columns 5, 6 of FIG. 5B)): less than 50%
% change compared to vehicle (lymphoid CD4+CD8- T cells) [2, 8]: −51.4%
% of viable cells (lymphoid CD4+CD8- T cells) [2, 8]: 7.1** %
reduction of recruitment of lymphoid CD4+CD8- T cells compared with vehicle [2, 9]: over 33.3%
% change compared to vehicle (TGFβ mRNA) (TGFβ mRNA; 50 mg/kg po twice/day, mdx mice muscle): −34.7%
TGFβ mRNA (TGFβ mRNA; [6]): 0.79
reduction of the TGFβ mRNA level (fraction in words) (TGFβ mRNA; treatment alone, muscle of mdx mice): over a third
% change compared to vehicle (CD11b+Ly6Chigh profibrotic myeloid cells) ([3]; 50 mg/kg po twice/day): −86.4%
% of viable cells (CD11b+Ly6Chigh profibrotic myeloid cells) ([3]; 50 mg/kg po twice/day): 1.75** %
% change compared to vehicle (CD11b+Ly6Chigh profibrotic myeloid cells) ([3]; 100 mg/kg po twice/day): −82.1%
% of viable cells (CD11b+Ly6Chigh profibrotic myeloid cells) ([3]; 100 mg/kg po twice/day): 1.31** %
reduction of profibrotic myeloid cell recruitment compared with vehicle ([3]; at both doses tested): over 80%
effect on Mpeg1 mRNA level (Mpeg1 mRNA): No effects
effect on Ly6C1 mRNA level (Ly6C1 mRNA): No effects
Lgals3 mRNA level (Lgals3 mRNA; [6]): 0.66
effect on the level of Lgals3 mRNA (Lgals3 mRNA; [10]): no significant effect
relative levels of pro- and anti-fibrotic myeloid cells [4]: in favour of anti-fibrotic myeloid cells
TNF mRNA level (TNF mRNA; [6]): 0.74
effect on the level of TNF mRNA (TNF mRNA; [10]): No significant effect
CD48 mRNA level (CD48 mRNA; [6]): 0.86
effect on the level of CD48 mRNA (CD48 mRNA; [10]): no significant effect
% change compared to vehicle (lymphoid CD4-CD8- DN T cells) [5, 8]: −56.4%
% of viable cells (lymphoid CD4-CD8- DN T cells) [5, 8]: 14.2** %
reduction of recruitment of lymphoid DN T cells compared with vehicle [5, 9]: ~50%
